{"source": "patent US10004755B2", "about": "(priority 2014, dated 2018)", "key": {"[1]": {"conditions": "mouse, in vivo"}, "[2]": {"conditions": "mouse, in vivo", "remark": "listed apart in the source"}}, "data": [{"compound": "CCCCNc1ncc2c(-c3ccc(CN4CCN(C)CC4)cc3)cn([C@H]3CC[C@H](O)CC3)c2n1", "note": "[UNC2025A]", "values": [{"measurement": "oral bioavailability", "setting": "[1]", "result": "orally bioavailable"}, {"measurement": "MTD (predicted dose in chow)", "setting": "[2]", "result": 120, "unit": "mg/kg"}]}]}
